From patent US11331369B2, “Endoparasitic depsipeptides” (Zoetis Services LLC, priority 2017, dated 2022)

What follows are compounds tested on microfilariae of Dirofilaria immitis (assay: Dirofilaria immitis, Microfilaria (DiMF) In vitro Assay). Details: 72 h, read-out: DiMF Minimum Effective Dose (MED), approximately 72 hours incubation, microfilariae assessed for survival or paralysis.
Assay type: cell-based

Row | SMILES | minimal effective concentration
1 | CC(C)C[C@H]1C(=O)O[C@H](Cc2ccc(CN3CCN(S(C)(=O)=O)CC3)cc2)C(=O)N(C)[C@@H](CC(C)C)C(=O)O[C@H](C)C(=O)N(C)[C@@H](CC(C)C)C(=O)O[C@H](Cc2ccccc2)C(=O)N(C)[C@@H](CC(C)C)C(=O)O[C@H](C)C(=O)N1C [Example 10-10, (3S,6R,9S,12R,15S,18R,21S,24R)-6-benzyl-3,9,15,21-tetraisobutyl-4,10,12,16,22,24-hexamethyl-18-(4-((4-(methylsulfonyl)piperazin-1-yl)methyl)benzyl)-1,7,13,19-tetraoxa-4,10,16,22-tetraazacyclotetracosan-2,5,8,11,14,17,20,23-octaone] | 0.01 to 0.1 µM
2 | CC(C)C[C@H]1C(=O)O[C@H](Cc2ccc(Cn3ccnc3)cc2)C(=O)N(C)[C@@H](CC(C)C)C(=O)O[C@H](C)C(=O)N(C)[C@@H](CC(C)C)C(=O)O[C@H](Cc2ccc(Cn3ccnc3)cc2)C(=O)N(C)[C@@H](CC(C)C)C(=O)O[C@H](C)C(=O)N1C [Example 6-2, (3S,6R,9S,12R,15S,18R,21S,24R)-6,18-bis[[4-(imidazol-1-ylmethyl)phenyl]methyl]-3,9,15,21-tetraisobutyl-4,10,12,16,22,24-hexamethyl-1,7,13,19-tetraoxa-4,10,16,22-tetrazacyclotetracosane-2,5,8,11,14,17,20,23-octaone] | 0.01 to 0.1 µM
3 | Cc1cnn(Cc2ccc(C[C@H]3OC(=O)[C@H](CC(C)C)N(C)C(=O)[C@@H](C)OC(=O)[C@H](CC(C)C)N(C)C(=O)[C@@H](Cc4ccc(Cn5ccc(C(F)(F)F)n5)cc4)OC(=O)[C@H](CC(C)C)N(C)C(=O)[C@@H](C)OC(=O)[C@H](CC(C)C)N(C)C3=O)cc2)c1 [Example 1a-29, (3S,6R,9S,12R,15S,18R,21S,24R)-3,9,15,21-tetraisobutyl-4,6,10,16,18,22-hexamethyl-12-(4-((4-methyl-1H-pyrazol-1-yl)methyl)benzyl)-24-(4-((3-(trifluoromethyl)-1H-pyrazol-1-yl)methyl)benzyl)-1,7,13,19-tetraoxa-4,10,16,22-tetraazacyclotetracosan-2,5,8,11,14,17,20,23-octaone] | 0.01 to 0.1 µM
4 | CC(C)C[C@H]1C(=O)O[C@H](Cc2cccc(Cn3cc(O)cn3)c2)C(=O)N(C)[C@@H](CC(C)C)C(=O)O[C@H](C)C(=O)N(C)[C@@H](CC(C)C)C(=O)O[C@H](Cc2ccccc2)C(=O)N(C)[C@@H](CC(C)C)C(=O)O[C@H](C)C(=O)N1C [Example 5-3, (3S,6R,9S,12R,15S,18R,21S,24R)-6-benzyl-18-(3-((4-hydroxy-1H-pyrazol-1-yl)methyl)benzyl)-3,9,15,21-tetraisobutyl-4,10,12,16,22,24-hexamethyl-1,7,13,19-tetraoxa-4,10,16,22-tetraazacyclotetracosan-2,5,8,11,14,17,20,23-octaone] | 0.01 to 0.1 µM
5 | CC(C)C[C@H]1C(=O)O[C@H](Cc2ccc(Cn3cc(S(=O)(=O)N4CCCC4)cn3)cc2)C(=O)N(C)[C@@H](CC(C)C)C(=O)O[C@H](C)C(=O)N(C)[C@@H](CC(C)C)C(=O)O[C@H](Cc2ccccc2)C(=O)N(C)[C@@H](CC(C)C)C(=O)O[C@H](C)C(=O)N1C [Example 2-24, (3S,6R,9S,12R,15S,18R,21S,24R)-6-benzyl-3,9,15,21-tetraisobutyl-4,10,12,16,22,24-hexamethyl-18-(4-((4-(pyrrolidin-1-ylsulfonyl)-1H-pyrazol-1-yl)methyl)benzyl)-1,7,13,19-tetraoxa-4,10,16,22-tetraazacyclotetracosan-2,5,8,11,14,17,20,23-octaone] | 0.01 to 0.1 µM
6 | CC(C)C[C@H]1C(=O)O[C@H](Cc2ccc(Cn3nccc3N)cc2)C(=O)N(C)[C@@H](CC(C)C)C(=O)O[C@H](C)C(=O)N(C)[C@@H](CC(C)C)C(=O)O[C@H](Cc2ccc(Cn3nccc3N)cc2)C(=O)N(C)[C@@H](CC(C)C)C(=O)O[C@H](C)C(=O)N1C [Example 1b-144, (3S,6R,9S,12R,15S,18R,21S,24R)-6,18-bis(4-((5-amino-1H-pyrazol-1-yl)methyl)benzyl)-3,9,15,21-tetraisobutyl-4,10,12,16,22,24-hexamethyl-1,7,13,19-tetraoxa-4,10,16,22-tetraazacyclotetracosan-2,5,8,11,14,17,20,23-octaone] | 0.01 to 0.1 µM
7 | Cc1nn(Cc2ccc(C[C@H]3OC(=O)[C@H](CC(C)C)N(C)C(=O)[C@@H](C)OC(=O)[C@H](CC(C)C)N(C)C(=O)[C@@H](Cc4ccccc4)OC(=O)[C@H](CC(C)C)N(C)C(=O)[C@@H](C)OC(=O)[C@H](CC(C)C)N(C)C3=O)cc2)cc1Br [Example 2-16, (3S,6R,9S,12R,15S,18R,21S,24R)-6-benzyl-18-(4-((4-bromo-3-methyl-1H-pyrazol-1-yl)methyl)benzyl)-3,9,15,21-tetraisobutyl-4,10,12,16,22,24-hexamethyl-1,7,13,19-tetraoxa-4,10,16,22-tetraazacyclotetracosan-2,5,8,11,14,17,20,23-octaone] | 0.01 to 0.1 µM
8 | CC(C)C[C@H]1C(=O)O[C@H](Cc2ccc(Cn3cc4c(n3)CCC4)cc2)C(=O)N(C)[C@@H](CC(C)C)C(=O)O[C@H](C)C(=O)N(C)[C@@H](CC(C)C)C(=O)O[C@H](Cc2ccc(Cn3cc4c(n3)CCC4)cc2)C(=O)N(C)[C@@H](CC(C)C)C(=O)O[C@H](C)C(=O)N1C [Example 9-42, (3S,6R,9S,12R,15S,18R,21S,24R)-6,18-bis[[4-(5,6-dihydro-4H-cyclopenta[c]pyrazol-2-ylmethyl)phenyl]methyl]-3,9,15,21-tetraisobutyl-4,10,12,16,22,24-hexamethyl-1,7,13,19-tetraoxa-4,10,16,22-tetrazacyclotetracosane-2,5,8,11,14,17,20,23-octaone] | 0.01 to 0.1 µM
9 | CC(=O)Nc1c(C)nn(Cc2ccc(C[C@H]3OC(=O)[C@H](CC(C)C)N(C)C(=O)[C@@H](C)OC(=O)[C@H](CC(C)C)N(C)C(=O)[C@@H](Cc4ccccc4)OC(=O)[C@H](CC(C)C)N(C)C(=O)[C@@H](C)OC(=O)[C@H](CC(C)C)N(C)C3=O)cc2)c1C [Example 2-43, N-(1-(4-(((2R,5S,8R,11S,14R,17S,20R,23S)-14-benzyl-5,11,17,23-tetraisobutyl-4,8,10,16,20,22-hexamethyl-3,6,9,12,15,18,21,24-octaoxo-1,7,13,19-tetraoxa-4,10,16,22-tetraazacyclotetracosan-2-yl)methyl)benzyl)-3,5-dimethyl-1H-pyrazol-4-yl)acetamide] | 0.01 to 0.1 µM
10 | CC(C)C[C@H]1C(=O)O[C@H](Cc2ccc(Cn3cc(C4=CCCC4)cn3)cc2)C(=O)N(C)[C@@H](CC(C)C)C(=O)O[C@H](C)C(=O)N(C)[C@@H](CC(C)C)C(=O)O[C@H](Cc2ccccc2)C(=O)N(C)[C@@H](CC(C)C)C(=O)O[C@H](C)C(=O)N1C [Example 2-61, (3S,6R,9S,12R,15S,18R,21S,24R)-6-benzyl-18-(4-((4-(cyclopent-1-en-1-yl)-1H-pyrazol-1-yl)methyl)benzyl)-3,9,15,21-tetraisobutyl-4,10,12,16,22,24-hexamethyl-1,7,13,19-tetraoxa-4,10,16,22-tetraazacyclotetracosan-2,5,8,11,14,17,20,23-octaone] | 0.01 to 0.1 µM
11 | Cc1nccn1Cc1ccc(C[C@H]2OC(=O)[C@H](CC(C)C)N(C)C(=O)[C@@H](C)OC(=O)[C@H](CC(C)C)N(C)C(=O)[C@@H](Cc3cccc(Cn4ccnc4C)c3)OC(=O)[C@H](CC(C)C)N(C)C(=O)[C@@H](C)OC(=O)[C@H](CC(C)C)N(C)C2=O)cc1 [Example 7-1, (3S,6R,9S,12R,15S,18R,21S,24R)-3,9,15,21-tetraisobutyl-4,6,10,16,18,22-hexamethyl-12-[[3-[(2-methylimidazol-1-yl)methyl]phenyl]methyl]-24-[[4-[(2-methylimidazol-1-yl)methyl]phenyl]methyl]-1,7,13,19-tetraoxa-4,10,16,22-tetrazacyclotetracosane-2,5,8,11,14,17,20,23-octaone] | 0.01 to 0.1 µM
12 | CC(C)C[C@H]1C(=O)O[C@H](Cc2ccc(Cn3ccc(Br)n3)cc2)C(=O)N(C)[C@@H](CC(C)C)C(=O)O[C@H](C)C(=O)N(C)[C@@H](CC(C)C)C(=O)O[C@H](Cc2ccccc2)C(=O)N(C)[C@@H](CC(C)C)C(=O)O[C@H](C)C(=O)N1C [Example 2-57, (3S,6R,9S,12R,15S,18R,21S,24R)-6-benzyl-18-(4-((3-bromo-1H-pyrazol-1-yl)methyl)benzyl)-3,9,15,21-tetraisobutyl-4,10,12,16,22,24-hexamethyl-1,7,13,19-tetraoxa-4,10,16,22-tetraazacyclotetracosan-2,5,8,11,14,17,20,23-octaone] | 0.01 to 0.1 µM
13 | CC(C)C[C@H]1C(=O)O[C@H](Cc2ccc(Cn3nccc3-c3ccccc3)cc2)C(=O)N(C)[C@@H](CC(C)C)C(=O)O[C@H](C)C(=O)N(C)[C@@H](CC(C)C)C(=O)O[C@H](Cc2ccccc2)C(=O)N(C)[C@@H](CC(C)C)C(=O)O[C@H](C)C(=O)N1C [Example 2-67, (3S,6R,9S,12R,15S,18R,21S,24R)-6-benzyl-3,9,15,21-tetraisobutyl-4,10,12,16,22,24-hexamethyl-18-(4-((5-phenyl-1H-pyrazol-1-yl)methyl)benzyl)-1,7,13,19-tetraoxa-4,10,16,22-tetraazacyclotetracosan-2,5,8,11,14,17,20,23-octaone] | 0.01 to 0.1 µM
14 | CC(C)C[C@H]1C(=O)O[C@H](Cc2ccc(Cn3cccc3/C(N)=N/O)cc2)C(=O)N(C)[C@@H](CC(C)C)C(=O)O[C@H](C)C(=O)N(C)[C@@H](CC(C)C)C(=O)O[C@H](Cc2ccc(Cn3cccc3C(N)=NO)cc2)C(=O)N(C)[C@@H](CC(C)C)C(=O)O[C@H](C)C(=O)N1C [Example 9-30, N′-hydroxy-1-[[4-[[(2R,5S,8R,11S,14R,17S,20R,23S)-14-[[4-[[2-[(Z)—N′-hydroxycarbamimidoyl]pyrrol-1-yl]methyl]phenyl]methyl]-5,11,17,23-tetraisobutyl-4,8,10,16,20,22-hexamethyl-3,6,9,12,15,18,21,24-octaoxo-1,7,13,19-tetraoxa-4,10,16,22-tetrazacyclotetracos-2-yl]methyl]phenyl]methyl]pyrrole-2-carboxamidine] | 0.001 to 0.01 µM
